Key:
NSC-34 cells [1] = experiment: NSC-34 viability in cytokine-conditioned EOC-20 microglial medium (tetrazolium reduction); format: cell-based, mouse
Method: In the second cytotoxicity paradigm, the inventor has also shown that the compounds and methods of this invention diminish the toxicity of microglia-conditioned medium toward NSC-34 cells. NSC-34 cells were treated with conditioned medium taken from EOC-20 cells that had been stimulated for 24 h with 50 U/mL IFNγ plus […] TNFα. This cytokine-conditioned EOC-20 medium is toxic to NSC-34 cells, whereas the same cytokine mixture added directly to NSC-34 cells is not toxic (data not shown). Medium from unstimulated EOC-20 cells is likewise nontoxic (data not shown). The toxic factor in the cytokine-stimulated EOC-20 cell conditioned medium was not identified. […] The concentration of (R)-LKE1 necessary to achieve half-maximal protective efficacy in this case was less than 1 μM (FIG. 3).
(R)-LKE1 protects NSC-34 motoneuron hybridoma cells from microglial-derived neurotoxic products (FIG. 3). EOC-20 microglia were stimulated with 50 U/mL IFNγ plus 20ng/mL TNFα for 24 hours, and cytokine-conditioned medium (CM) was collected. NSC-34 cells (2 days post-passage) were treated with the indicated concentration of (R)-LKE1 for 2.5 hours after which 50% of the medium was replaced with CM. […] After 48 hours, viability of NSC-34 cultures was assessed by tetrazolium reduction assay using a commercially available kit (Promega Aqueous OneStep®).

HT4 cells = experiment: glutamate toxicity in HT4 cells (LDH leakage); format: cell-based
Method: (§1) FIG. 13. (R)-LK protects HT4 cells against excitotoxicity. Determination of cell viability: HT4 cells were seeded in 6 well plates (1×10^7 cell/well). After 24 h, cell media was changed and (R)-LK (in DMSO) was used for 1 h prior to glutamate challenge. Powdered (R)-LK was dissolved in DMSO just before use. The viability of cells in culture was assessed by measuring the leakage of lactate dehydrogenase (LDH) from cells to media 18-24 h following glutamate treatment using the in vitro toxicology assay kit from Sigma Chemical Co. (St. Louis, Mo., USA). LDH leakage was determined using the following equation: % of total LDH leaked=(LDH activity in the cell culture media/total LDH activity) where total LDH activity=LDH activity in cell monolayer+LDH activity of detached cells+LDH activity in the cell culture media.
as §1, with “14. (R)-LKE1” for “13. (R)-LK”, “Determination of cell viability: HT4 cells were seeded in 6 well plates (1×10^7 cell/well). After 24 h, cell media was changed and (R)-LK (in DMSO) was used for 1 h prior to glutamate challenge. Powdered (R)-LK was dissolved in DMSO just before use.” left out, “media. […]” for “media.”

Htt+ astroglia = experiment: LPS-stimulated NO2- production in Htt+ astroglia; format: cell-based, mouse; conditions: LPS serotype 0127:B8
Method: Primary astrocytes were cultured from neonatal R6/2 transgenic mouse pups (“Htt+”) which are the standard murine model for Huntington's disease (animals commercially obtained from Jackson Labs) or nontransgenic littermates. For RAW cell studies, RAW264.7 macrophages were obtained commercially from American Type Culture Collection. RAW 264.7 macrophages were grown in DMEM plus 10% FBS and 1% Pen/Strep. Cells were maintained in culture according to published methods. Cells were treated with +/−[…] bacterial lipopolysaccharide serotype 0127:B8 (Sigma Chemical)+/−various concentrations of (R)-LKE1 for 24-48 h. (R)-LKE1 was added 30 minutes prior to LPS challenge. Nitrite was measured in the cell culture medium using the Griess diazotization assay. Cells were lysed and Western blots performed for protein expression or in other experiments for ribonuclease protection assays.

C6 glioma cells = experiment: stimulated nitrite production in C6 glioma cells; format: cell-based
EOC-20 microglial cells = experiment: PGE2 production in TNFα+IFNγ-stimulated EOC-20 microglial cells; format: cell-based, mouse; conditions: stimulated by TNFα+IFNγ
[2] = tested on: mice treated with E. coli LPS 0127:B8; experiment: LPS sepsis mouse model, viability; format: in vivo; conditions: for Dead/alive: 40 mg/kg LPS + 100 mg/kg i.p. daily
Method: Six mice were treated with 40 mg/kg E. coli LPS 0127:B8 and co-treated with 100 mg/kg (R)-LKE1 i.p., daily. Viability was compared to a control group, receiving only LPS.

NSC-34 cells [3] = experiment: NSC-34 viability after glutamate and/or Ca2+ exposure; format: cell-based, mouse; conditions: 1 mM L-glutamate, 1 mM CaCl2 or both, four days
Method: NSC-34 motor neuron x neuroblastoma cells were treated with 1 mM L-glutamate, 1 mM CaCl2, or both for four days. (R)-LKE1 was added at t=0 and at t=48 hours, at the indicated concentrations. At the end of four days (t=96 hours) cell viability was assayed by measuring tetrazolium reduction rates using a commercially available kit (Promega).

CCOC(=O)[C@@H]1CSCC(C(=O)O)=N1 [(R)-LKE1]
EC50 (NSC-34 cells [1]; Mus musculus, NSC-34, cytokine-conditioned EOC-20 medium, read-out: concentration necessary to achieve half-maximal protective efficacy): < 1000 nM
mitigation of conditioned-medium toxicity (NSC-34 cells [1]; co-treatment with conditioned medium): largely, but not completely mitigated
glutamate toxicity (LDH release) (HT4 cells): significantly diminished glutamate toxicity
NO2- produced in response to LPS (Htt+ astroglia): reduce the amount of NO2^− produced
suppression of nitrite production (C6 glioma cells; stimulated by TNFα+IFNγ): does not suppress nitrite production
suppression of nitrite production (C6 glioma cells; stimulated by TNFα+LPS): not to suppress nitrite production
suppression of PGE2 production (EOC-20 microglial cells): does not to suppress prostaglandin E2 (PGE2) production
Dead/alive ([2]; 0 h): 0/6
Dead/alive ([2]; 18 h): 2/4
Dead/alive ([2]; 36 h): 3/3
Dead/alive ([2]; 48 h): 4/2
Dead/alive ([2]; 72 h): 4/2
chance of surviving the LPS model conditions ([2]; co-treated): higher chance of surviving
viability of cells exposed to glutamate and/or Ca2+ (NSC-34 cells [3]): increases the viability
